This note sets out measurements from ChEMBL document CHEMBL3045207, “1-Phenyl-3-toluyl-4-[ortho-1'-(N-ethyl-2'-methylpropylamine)]phenylpyrazole, synthesis and evaluation of the in vitro antifungal activity against Botrytis cinerea and Fusarium oxysporum” (Farmaco, 2004).

Experiment [1] deals with Fusarium oxysporum. As to the kind of experiment: Inhibition of conidial germination of Fusarium oxysporum at 10 ug/ml after 48 hr by microscopy. Type of experiment: functional.
For experiment [2], the system named is Botrytis cinerea. The experiment can be described thus: Antifungal activity against Botryotinia fuckeliana after 72 hr by 96-well microbioassay. Type of experiment: functional.
Experiment [3] relates to Botrytis cinerea. As to the kind of experiment: Inhibition of mycelial growth of Botryotinia fuckeliana after […]. Type of experiment: functional, organism-based.
Experiment [4] relates to Botrytis cinerea. The experiment can be described thus: Inhibition of conidial germination of Botryotinia fuckeliana at 50 ug/ml after 8 days by microscopy. Type of experiment: functional, organism-based.
In experiment [5] the test system is Fusarium oxysporum. As to the kind of experiment: Antifungal activity against Fusarium oxysporum assessed as growth inhibition at 1 mg/ml after 72 hr by paper disk diffusion method. Particulars: read-out: DIZ. Type of experiment: functional. (In general: Agar diffusion results depend on both activity and mobility in agar.)
The test system of experiment [6] is Botrytis cinerea. As to the kind of experiment: Inhibition of conidial germination of Botryotinia fuckeliana at 10 ug/ml after 48 hr by microscopy. Type of experiment: functional.
In experiment [7] the test system is Fusarium oxysporum. As to the kind of experiment: Inhibition of conidial germination of Fusarium oxysporum at 100 ug/ml after 8 days by microscopy. Type of experiment: functional, organism-based.
The subject of experiment [8] is Fusarium oxysporum. The experiment can be described thus: Inhibition of mycelial growth of Fusarium oxysporum after […]. Type of experiment: functional, organism-based.
For experiment [9], the system named is Fusarium oxysporum. As to the kind of experiment: Inhibition of conidial germination of Fusarium oxysporum after 8 days by microscopy. Type of experiment: functional, organism-based. Conditions: 192 h.
Experiment [10] deals with Botrytis cinerea. The experiment can be described thus: Antifungal activity against Botryotinia fuckeliana assessed as growth inhibition at 1 mg/ml after 72 hr by paper disk diffusion method. Type of experiment: functional. Particulars: read-out: DIZ.
Experiment [11] deals with Botrytis cinerea. The experiment can be described thus: Inhibition of conidial germination of Botryotinia fuckeliana after 8 days by microscopy. Type of experiment: functional, organism-based. Conditions: 192 h.
In experiment [12] the test system is Fusarium oxysporum. As to the kind of experiment: Antifungal activity against Fusarium oxysporum after 72 hr by 96-well microbioassay. Type of experiment: functional.

What is called inhibition is how much of the control response was suppressed. Broadly, the MIC is the lowest concentration found to suppress growth. Higher therefore signals a less susceptible organism. A word on the IC50: it is the point on the concentration scale where inhibition reaches its midpoint.

Values after ≈ are worked out from the molar mass of the structure shown. Active and inactive are the calls of the source. No cut-off for these calls is given here.

For `CCNC(c1ccccc1-c1cn(-c2ccccc2)nc1-c1ccc(C)cc1)C(C)C` (stereo unspecified), the inhibition at 10 µg/mL in the experiment on Fusarium oxysporum [1] amounted to 20%; with Botrytis cinerea [6], 85%. For the same molecule, the MIC with Botrytis cinerea [2] is 25 µg/mL (≈ 61 µM); against Fusarium oxysporum [12], 36 µg/mL (≈ 87.9 µM). Besides, the 50% inhibitory concentration (IC50) in the experiment with Botrytis cinerea [3] worked out at 6.8 µg/mL (≈ 16.6 µM); with Fusarium oxysporum [8] it was 17.8 µg/mL (≈ 43.4 µM); in the experiment on Fusarium oxysporum [9], 40.8 µg/mL (≈ 99.6 µM); in the experiment on Botrytis cinerea [11], 7.3 µg/mL (≈ 17.8 µM). Further, the inhibition result in the experiment with Botrytis cinerea [4] and in the experiment on Fusarium oxysporum [7] was “Active” throughout. Further, the zone of inhibition at 1000 µg/mL in the experiment on Fusarium oxysporum [5] turned out to be 23.6 mm; in the experiment with Botrytis cinerea [10] it was 26 mm.
Turning to `C[C@@H]1[C@H](O)[C@@H](C)/C=C/C=C/C=C/C=C/C=C/C=C/C=C/[C@H](O[C@@H]2O[C@H](C)[C@@H](O)[C@H](N)[C@@H]2O)C[C@@H]2O[C@](O)(C[C@@H](O)C[C@@H](O)[C@H](O)CC[C@@H](O)C[C@@H](O)CC(=O)O[C@H]1C)C[C@H](O)[C@H]2C(=O)O` [AMPHOTERICIN B], the MIC stood at 12 µg/mL (≈ 13 µM) against Botrytis cinerea [2] and 15 µg/mL (≈ 16.2 µM) with Fusarium oxysporum [12]. Also, the zone of inhibition at 1000 µg/mL is 26 mm with Fusarium oxysporum [5] and 30 mm in the experiment with Botrytis cinerea [10].
